Reference: patent US20250115620A1, “BRIDGED TRICYCLIC CARBAMOYLPYRIDONE COMPOUNDS AND USES THEREOF” (Gilead Sciences, Inc., priority 2022, published 2025)
Like-named read-outs stand apart in the source and are kept apart here.

How the values were obtained:
HIV-1 (IIIB) = experiment: microbe, parasite or virus in culture; type: cell-based; settings: Human immunodeficiency virus 1, IIIB, MT4, 120 h, read-out: MT4 EC50
pLAI reporter virus = experiment: microbe, parasite or virus in culture; type: cell-based, HIV; settings: Human immunodeficiency virus 1, MT4, 72 h
in vitro = settings: human, uninfected MT-4 cells
Protocol: Compounds were serially diluted (1:3) in DMSO on 384-well polypropylene plates and further diluted 200-fold into complete RPMI media (10% FBS, 1% P/S) using the Biotek Micro Flow and Labcyte ECHO acoustic dispenser. […] Infected and uninfected MT-4 cells were further diluted in complete RPMI media and added to each plate using a Micro Flow dispenser. After 5 days incubation in a humidified and temperature controlled incubator (37° C.), Cell Titer Glo (Promega) was added to the assay plates and chemiluminescence read using an Envision plate-reader.
Assays were performed as above except uninfected MT-4 cells were added to each well containing test compound. In addition, 10 μM puromycin was added to the last column of each assay plate to assess a base level of cytotoxicity.

[1] = HIV-1 (IIIB) in MT-4 cells, 5 days incubation, Cell Titer Glo

**Q.** What does the source list for C[C@H]1CC[C@]2(CC(CF)=NO2)[C@H]2CN1C(=O)c1c(O)c(=O)c(C(=O)NCc3c(F)cc(F)cc3F)cn12 [Example 19, (3′S,5S,7′R)-3-(fluoromethyl)-12′-hydroxy-3′-methyl-1′,11′-dioxo-N-(2,4,6-trifluorobenzyl)-1′,4′,5′,11′-tetrahydro-3′H,4H,7′H-spiro[isoxazole-5,6′-[2,7]methanopyrido[1,2-a][1,4]diazonine]-10′-carboxamide]?
**A.** EC50 (HIV-1 (IIIB)): 1 nM; EC50 (pLAI reporter virus; read-out: RLUC 50% HS EC50): 163 nM; EC50 (pLAI reporter virus; read-out: RLUC CCM EC50): 0.2 nM; CC50 at 5 days (in vitro): 22900 nM

**Q.** For C[C@H]1CC[C@]2(CC(C(F)F)=NO2)[C@H]2CN1C(=O)c1c(O)c(=O)c(C(=O)NCc3c(F)cc(F)cc3F)cn12 [Example 20, (3′S,5S,7′R)-3-(difluoromethyl)-12′-hydroxy-3′-methyl-1′,11′-dioxo-N-(2,4,6-trifluorobenzyl)-1′,4′,5′,11′-tetrahydro-3′H,4H,7′H-spiro[isoxazole-5,6′-[2,7]methanopyrido[1,2-a][1,4]diazonine]-10′-carboxamide], which EC50 (HIV-1 (IIIB); [1]) is on record?
**A.** 1.2 nM

**Q.** What about the EC50 (pLAI reporter virus; read-out: RLUC 50% HS EC50) of the same compound?
**A.** 168 nM

**Q.** What about the EC50 (pLAI reporter virus; read-out: RLUC CCM EC50) of the same compound?
**A.** 0.3 nM

**Q.** And the CC50 at 5 days (in vitro)?
**A.** 12400 nM

**Q.** For C[C@H]1CC[C@]2(CC(C(F)F)=NO2)[C@H]2CN1C(=O)c1c(O)c(=O)c(C(=O)NCc3ccc(F)cc3F)cn12 [Example 21, (3′S,5S,7′R)—N-(2,4-difluorobenzyl)-3-(difluoromethyl)-12′-hydroxy-3′-methyl-1′,11′-dioxo-1′,4′,5′,11′-tetrahydro-3′H,4H,7′H-spiro[isoxazole-5,6′-[2,7]methanopyrido[1,2-a][1,4]diazonine]-10′-carboxamide], which EC50 (HIV-1 (IIIB); [1]) is on record?
**A.** 1.4 nM

**Q.** And the EC50 (pLAI reporter virus; read-out: RLUC 50% HS EC50)?
**A.** 72.7 nM

**Q.** What about the EC50 (pLAI reporter virus; read-out: RLUC CCM EC50) of the same compound?
**A.** 0.3 nM

**Q.** What about the CC50 at 5 days (in vitro) of the same compound?
**A.** 29300 nM

**Q.** Which results are given for CC1=NO[C@]2(CC[C@H](C)N3C[C@H]2n2cc(C(=O)NCc4ccc(F)cc4F)c(=O)c(O)c2C3=O)C1C (stereo partly drawn) [Example 23, (3′S,5R,7′R)—N-(2,4-difluorobenzyl)-12′-hydroxy-3,3′,4-trimethyl-1′,11′-dioxo-1′,4′,5′,11′-tetrahydro-3′H,4H,7′H-spiro[isoxazole-5,6′-[2,7]methanopyrido[1,2-a][1,4]diazonine]-10′-carboxamide]?
**A.** EC50 (HIV-1 (IIIB); [1]): 1.2 nM; EC50 (pLAI reporter virus; read-out: RLUC 50% HS EC50): 0.9 nM; EC50 (pLAI reporter virus; read-out: RLUC CCM EC50): 0.5 nM; CC50 at 5 days (in vitro): ≥ 50000 nM

**Q.** With CC1=NO[C@]2(CC[C@H](C)N3C[C@H]2n2cc(C(=O)NCc4ccc(F)cc4F)c(=O)c(O)c2C3=O)C1O (stereo partly drawn) [Example 24, (3′S,5S,7′R)—N-(2,4-difluorobenzyl)-4,12′-dihydroxy-3,3′-dimethyl-1′,11′-dioxo-1′,4′,5′,11′-tetrahydro-3′H,4H,7′H-spiro[isoxazole-5,6′-[2,7]methanopyrido[1,2-a][1,4]diazonine]-10′-carboxamide] as the compound, how does the EC50 (HIV-1 (IIIB); [1]) read?
**A.** 5.9 nM

**Q.** What about the EC50 (pLAI reporter virus; read-out: RLUC 50% HS EC50) of the same compound?
**A.** 4.9 nM

**Q.** And the EC50 (pLAI reporter virus; read-out: RLUC CCM EC50)?
**A.** 2.8 nM

**Q.** And the CC50 at 5 days (in vitro)?
**A.** ≥ 50000 nM

**Q.** Which EC50 (HIV-1 (IIIB); [1]) does the source give for CC1=NO[C@]2(CC[C@H](C)N3C[C@H]2n2cc(C(=O)NCc4ccc(F)cc4F)c(=O)c(O)c2C3=O)C1=O [Example 25, (3′S,5S,7′R)—N-(2,4-difluorobenzyl)-12′-hydroxy-3,3′-dimethyl-1′,4,11′-trioxo-1′,4′,5′,11′-tetrahydro-3′H,4H,7′H-spiro[isoxazole-5,6′-[2,7]methanopyrido[1,2-a][1,4]diazonine]-10′-carboxamide] here?
**A.** ≥ 100 nM

**Q.** And the EC50 (pLAI reporter virus; read-out: RLUC 50% HS EC50)?
**A.** 58.1 nM

**Q.** What about the EC50 (pLAI reporter virus; read-out: RLUC CCM EC50) of the same compound?
**A.** 34 nM

**Q.** And the CC50 at 5 days (in vitro)?
**A.** ≥ 50000 nM

**Q.** Which results are given for CC1=NO[C@@]2(CC[C@H](C)N3C[C@H]2n2cc(C(=O)NCc4ccc(F)cc4F)c(=O)c(O)c2C3=O)[C@H]1C [Example 26, (3′S,4S,5S,7′R)—N-(2,4-difluorobenzyl)-12′-hydroxy-3,3′,4-trimethyl-1′,11′-dioxo-1′,4′,5′,11′-tetrahydro-3′H,4H,7′H-spiro[isoxazole-5,6′-[2,7]methanopyrido[1,2-a][1,4]diazonine]-10′-carboxamide]?
**A.** EC50 (HIV-1 (IIIB); [1]): 0.5 nM; EC50 (pLAI reporter virus; read-out: RLUC 50% HS EC50): 9.5 nM; EC50 (pLAI reporter virus; read-out: RLUC CCM EC50): 0.3 nM; CC50 at 5 days (in vitro): 13000 nM
